Like-named read-outs stand apart in the source and are kept apart here. Peptide text beside a SMILES is read from it. * marks the point of attachment. X1 = Cc1c(C)c2c(c(C)c1OC(=O)CCC(=O)*)CCC(C)(CCCC(C)CCCC(C)CCCC(C)C)O2; Stearoyl = CCCCCCCCCCCCCCCCCC(=O)*; Palmitoyl = CCCCCCCCCCCCCCCC(=O)*
Tests used:
[1] = test system: HIV-2 strain ROD (infectious); experiment: inhibition of HIV-2; type: cell-based; conditions: HIV-2 ROD
Experimental: (§1) Inhibition rate (%) and IC50 value were calculated.
In order to further reflect the antiviral advantages of the potent lipopeptides of the present invention, their inhibitory activity against HIV-2 and SIV was determined in the example. The methods of antiviral activity assays used were described in the literatures published by the present inventors (see the References 13 and 30 listed in the Background Art). The molecular cloning plasmid pROD of the HIV-2 strain ROD (HIV-2ROD) was kindly provided by Professor Nuno Taveira from the University of Lisbon, Portugal, and the plasmids expressing the SIV strain SIVpbj (SIVPBJ) and SIV239 envelope proteins (pSIVpbj-Env and pSIV239, respectively) were kindly provided by Professor Xu Jianqing from the Fudan University. The preparation of the infectious ROD was the same as that of the infectious JRCSF in the above section 2.1, and the pseudoviruses SIVpbj and SIV239 were prepared by a method same as that described in the above Examples 2 and 3.

[2] = test system: 35 HIV-1 pseudoviruses (subtypes A, B, B', C, G, A/C, A/E, B/C); conditions: for inhibitory activity against different subtypes of HIV-1 as folds of T-20: relative to T-20, from average IC50
From the text: HIV-1 pseudovirus-mediated cell entry inhibition assay: basic steps included: (1) Preparation of HIV-1 pseudovirus: the 293T cells were co-transfected with a plasmid expressing the envelope protein (Env) of HIV-1 strain NL4-3 (i.e., a recombinant expression plasmid obtained by inserting the gene encoding the envelope protein (ENV) of the D36G mutant of the HIV-1 strain NL4-3 in the Table 2 of the Reference 14 listed in the Background Art into the vector pcDNA3.1(−)) and the HIV-1 backbone plasmid pSG3Δenv (provided by the AIDS Reagent Program of National Institutes of Health (NIH), catalog number: 11051) by using a cell transfection reagent, incubated in a cell incubator of 37° C. and 5% CO2 for 6 hours, and then the medium was changed, and the cells were further incubated for 48 hours. The cell culture supernatant containing pseudovirus particles was pipetted and filtered with a 0.45 μm filter to collect the supernatant, then 20% fetal bovine serum (FBS) was added thereto, the final solution was transferred to a polypropylene tube, and stored at −80° C. for ready for use or directly subjected to virus titration. (2) Titration of HIV-1 pseudovirus: the viruses were diluted by 5 folds in a 96-well plate, and 4 replicate wells with 8 gradients were set to a final volume of 100 microliters. The TZM-b1 cells were trypsinized and counted, and the cells were diluted to 1×10^5 cells/ml with DMEM complete medium; 100 μl of cells dilution (containing 15 μg/ml DEAE-dextran) per well were added and cultured at 37° C. and 5% CO2 for 48 hours. The 96-well plate was then taken from the cell culture incubator. The supernatant was discarded from the wells. To each well, 30 μl of a cell lysate was added, and after 10 minutes, 100 μl of a luciferase detection reagent was added. 100 μl of liquid was pipetted from each well and added to a corresponding 96-well white plate, and the luminescence values were read by a microplate photometer. The virus titer was calculated by the Reed-Muench method. (3) Antiviral activity assay: the test substance was dissolved in DMSO and diluted with a cell culture solution by 3 folds, and placed in a 96-well plate at a final volume of […]. 50 μl of a DMEM medium was used in place of the test substance as a negative control. To each well, 100 μl of TZM-b1 target cells solution (containing 15 μg/ml DEAE-dextran) at a concentration of 1×10^5 cells/ml was added, and then 50 μl (corresponding to 100 TCID50 per well) of the HIV-1 pseudovirus obtained above was added. After incubation at 37° C. and 5% CO2 for 48 hours, the relative light units (RLU) of each well were determined by using a luciferase detection reagent (Promega). Inhibition rate (%) and IC50 value were calculated.
Among them, the A, B and C subtypes were the main viruses causing AIDS epidemic in the world, while B/C and A/E recombinant viruses were the main viruses in China. […] Among the Env expression plasmids used for the preparation of pseudoviral, except that the Env expression plasmids used for preparation of PVO, Du156 and CAP 210.2.00.E8 were obtained from the AIDS Reagent Program of NIH in the United states, other plasmids were preserved by the laboratory of Prof. He Yuxian, Institute of Pathogen Biology, Chinese Academy of Medical Sciences, please see the References 13, 14 and 18 listed in the Background Art and articles of Chong et al. (Chong H, Yao X, Zhang C, Cai L, Cui S, Wang Y, He Y. Biophysical property and broad anti-HIV activity of Albuvirtide, a 3-maleimimidoproprotionic acid-modified peptide fusion inhibitor. PLoS One, 2012; 7 (3): e 32599). The preparation of the pseudovirus and the antiviral assay were the same as those in Example 2.1 of Example 2 (HIV-1 pseudovirus-mediated cell entry inhibition assay).

[3] = test system: HIV-1 strain NL4-3 (NL4-3D36G); experiment: antiviral activity in serum of macaque after subcutaneous injection; type: in vivo, macaques (rhesus monkeys); conditions: 3 mg/kg subcutaneous
Experimental: The specific method was as follows: 6 experimental macaques (rhesus monkeys) were selected, half male and half female, aged 3-4 years old, weighing 3.4-4.7 kg. […] The serum was separated according to a conventional method. The injection interval of each inhibitor was more than 2 weeks to ensure that there was no residue of the previous analyte. The serum activity against the HIV-1 strain NL4-3 (NL4-3D36G) was measured according to the experimental method of the pseudovirus-based assay in the above examples. The serum was diluted by 3 folds. […] Therefore, the lipopeptides of the present invention were not only potent but also were long-lasting effective.

[4] = test system: HIV-1 strain NL4-3 pseudovirus (D36G mutant); type: cell-based
Experimental: The supernatant was discarded from the wells. […] Inhibition rate (%) and IC50 value were calculated.

[5] = test system: HIV-1 strain JRCSF; type: cell-based
Experimental: as §1

[6] = 72 hours (3 days) after injection
[7] = read-out: average IC50 for inhibition of various types of HIV-1 pseudoviruses, average over 35 pseudoviruses

SMILES	inhibitory activity against HIV-2 (in words) [1]	inhibitory activity against different subtypes of HIV-1 as folds of T-20 [2] [folds]	maximum serum dilution multiple for inhibiting 50% of NL4-3 infectivity ([3]; 4 hour after injection) [folds]	maximum serum dilution multiple for inhibiting 50% of NL4-3 infectivity ([3]; 6 hour after injection) [folds]	maximum serum dilution multiple for inhibiting 50% of NL4-3 infectivity [3, 6] [folds]	IC50 [2, 7] [pM]	IC50 ([4]; Entry of NL4-3 (D36G), read-out: IC50 for inhibiting pseudovirus) [pM]	inhibitory activity against NL4-3 entry (in words) ([4]; compared with LP-52)	maximum serum dilution multiple for inhibiting 50% of NL4-3 infectivity ([3]; 8 hour after injection) [folds]	maximum serum dilution multiple for inhibiting 50% of NL4-3 infectivity ([3]; 96 hours (4 days) after injection) [folds]	maximum serum dilution multiple for inhibiting 50% of NL4-3 infectivity ([3]; 120 hours (5 days) after injection) [folds]	maximum serum dilution multiple for inhibiting 50% of NL4-3 infectivity ([3]; 144 hours (6 days) after injection) [folds]	IC50 ([5]; Replication of JRCSF, read-out: IC50 for inhibiting replicative virus) [pM]	inhibitory activity against JRCSF replication (in words) ([5]; compared with LP-52)	IC50 ([2]; read-out: IC50 for many strains, many individual strains of the 35 pseudoviruses) [pM]
CC[C@H](C)[C@H](NC(=O)[C@H](CCCCN)NC(=O)[C@H](CCC(N)=O)NC(=O)[C@H](CCC(=O)O)NC(=O)[C@H](Cc1c[nH]c2ccccc12)NC(C)=O)C(=O)N[C@@H](CCC(=O)O)C(=O)N[C@@H](CCC(=O)O)C(=O)N[C@@H](CC(C)C)C(=O)N[C@@H](CC(C)C)C(=O)N[C@@H](CCCCN)C(=O)N[C@@H](CCCCN)C(=O)N[C@@H](C)C(=O)N[C@@H](CCC(=O)O)C(=O)N[C@@H](CCC(=O)O)C(=O)N[C@@H](CCC(N)=O)C(=O)N[C@@H](CCC(N)=O)C(=O)N[C@@H](CCCCN)C(=O)N[C@@H](CCCCN)C(=O)N[C@@H](CC(N)=O)C(=O)N[C@@H](CCC(=O)O)C(=O)N[C@@H](CCC(=O)O)C(=O)N[C@@H](CCC(=O)O)C(=O)N[C@@H](CC(C)C)C(=O)N[C@@H](CCCCN)C(=O)N[C@@H](CCCCN)C(=O)N[C@@H](CC(C)C)C(=O)N[C@@H](CCC(=O)O)C(=O)N[C@@H](CCCCNC(=O)CCC(=O)Oc1c(C)c(C)c2c(c1C)CCC(C)(CCCC(C)CCCC(C)CCCC(C)C)O2)C(N)=O (stereo partly shown) [LP-85] (Ac-WEQKIEELLKKAEEQQKKNEEELKKLEK(X1)-NH2)	extremely potent inhibitory activity	941	–	–	–	–	–	–	–	–	–	–	–	–	–
CCCCCCCCCCCCCCCC(=O)NCCCC[C@H](NC(=O)[C@H](CCC(=O)O)NC(=O)[C@H](CC(C)C)NC(=O)[C@H](CCCCN)NC(=O)[C@H](CCCCN)NC(=O)[C@H](CC(C)C)NC(=O)[C@H](CCC(=O)O)NC(=O)[C@H](CCC(=O)O)NC(=O)[C@H](CCC(=O)O)NC(=O)[C@H](CC(N)=O)NC(=O)[C@H](CCCCN)NC(=O)[C@H](CCCCN)NC(=O)[C@H](CCC(N)=O)NC(=O)[C@H](CCC(N)=O)NC(=O)[C@H](CCC(=O)O)NC(=O)[C@H](CCC(=O)O)NC(=O)[C@H](C)NC(=O)[C@H](CCCCN)NC(=O)[C@H](CCCCN)NC(=O)[C@H](CC(C)C)NC(=O)[C@H](CC(C)C)NC(=O)[C@H](CCC(=O)O)NC(=O)[C@H](CCC(=O)O)NC(=O)[C@@H](NC(=O)[C@H](CC(N)=O)NC(=O)[C@H](C)NC(=O)[C@H](CCC(=O)O)NC(=O)[C@H](CC(C)C)NC(C)=O)[C@@H](C)CC)C(N)=O [LP-51] (Ac-LEANIEELLKKAEEQQKKNEEELKKLEK(Palmitoyl)-NH2)	extremely potent inhibitory activity	1255	700482	584381	1122	33	–	–	–	–	–	–	–	–	–
CCCCCCCCCCCCCCCCCC(=O)NCCCC[C@H](NC(=O)[C@H](CCC(=O)O)NC(=O)[C@H](CC(C)C)NC(=O)[C@H](CCCCN)NC(=O)[C@H](CCCCN)NC(=O)[C@H](CC(C)C)NC(=O)[C@H](CCC(=O)O)NC(=O)[C@H](CCC(=O)O)NC(=O)[C@H](CCC(=O)O)NC(=O)[C@H](CC(N)=O)NC(=O)[C@H](CCCCN)NC(=O)[C@H](CCCCN)NC(=O)[C@H](CCC(N)=O)NC(=O)[C@H](CCC(N)=O)NC(=O)[C@H](CCC(=O)O)NC(=O)[C@H](CCC(=O)O)NC(=O)[C@H](C)NC(=O)[C@H](CCCCN)NC(=O)[C@H](CCCCN)NC(=O)[C@H](CC(C)C)NC(=O)[C@H](CC(C)C)NC(=O)[C@H](CCC(=O)O)NC(=O)[C@H](CCC(=O)O)NC(=O)[C@@H](NC(C)=O)[C@@H](C)CC)C(N)=O [LP-90] (Ac-IEELLKKAEEQQKKNEEELKKLEK(Stearoyl)-NH2)	extremely potent inhibitory activity	2958	–	–	–	14	–	–	–	–	–	–	–	–	–
CCCCCCCCCCCCCCCCCC(=O)NCCCC[C@H](NC(=O)[C@H](CCC(=O)O)NC(=O)[C@H](CC(C)C)NC(=O)[C@H](CCCCN)NC(=O)[C@H](CCCCN)NC(=O)[C@H](CC(C)C)NC(=O)[C@H](CCC(=O)O)NC(=O)[C@H](CCC(=O)O)NC(=O)[C@H](CCC(=O)O)NC(=O)[C@H](CC(N)=O)NC(=O)[C@H](CCCCN)NC(=O)[C@H](CCCCN)NC(=O)[C@H](CCC(N)=O)NC(=O)[C@H](CCC(N)=O)NC(=O)[C@H](CCC(=O)O)NC(=O)[C@H](CCC(=O)O)NC(=O)[C@H](C)NC(=O)[C@H](CCCCN)NC(=O)[C@H](CCCCN)NC(=O)[C@H](CC(C)C)NC(=O)[C@H](CC(C)C)NC(=O)[C@H](CCC(=O)O)NC(=O)[C@H](CCC(=O)O)NC(=O)[C@@H](NC(=O)[C@H](CCCCN)NC(=O)[C@H](CCC(N)=O)NC(=O)[C@H](CCC(=O)O)NC(=O)[C@H](Cc1c[nH]c2ccccc12)NC(C)=O)[C@@H](C)CC)C(N)=O [LP-80] (Ac-WEQKIEELLKKAEEQQKKNEEELKKLEK(Stearoyl)-NH2)	extremely potent inhibitory activity	6902	–	491409	16157	6	2	even greater than that of C16-modified LP-52	537206	1980	211	46	2	even greater than that of C16-modified LP-52	< 1

Source: patent US11680086B2, “Lipopeptide for potently inhibiting HIV, derivative thereof, pharmaceutical composition thereof and use thereof” (Institute of Pathogen Biology, Chinese Academy of Medical …, priority 2017, dated 2023)
